Test results from PMC8603191, “Fragment-based design of selective GPCR ligands guided by free energy simulations” (Chemical communications (Cambridge, England), 2021).
Values joined by “and” are separate entries in the source; they are usually repeats but may differ in a detail not shown here. Identical values can stand only once. “Also recorded” adds a separate entry of the source.

What was measured:
hA1AR [1] = test: Ki values of known ligands downloaded from the ChEMBL database; type: binding, human; conditions: from ChEMBL Ki values hA1AR and hA2AAR
Text: Table S5. Highest affinity human A1AR ligands (with < 20 HA) in the ChEMBL database compared to compound 22.a […]
a Known A1AR and A2AAR ligands with determined Ki values were downloaded from the ChEMBL database.
Compounds with motifs found in pan-assay interference compounds16 were excluded using OpenEye Toolkits 2020.2.0 OpenEye Scientific Software, Santa Fe, NM. http://www.eyesopen.com.

hA1AR [2] = biological target: hA1AR; parameters: method as in ChEMBL database; conditions: ligands with < 20 HA; ref ChEMBL database; cited from earlier work
hA2AAR = biological target: hA2AAR; parameters: method as in ChEMBL database; conditions: ligands with < 20 HA; ref ChEMBL database; cited from earlier work
human A1AR [3] = biological target: T1, human A1AR (Homo sapiens, UniProt P30542); test: Radioligand binding assay, displacement of [3H]DPCPX; conditions: for Free energy of binding (ΔG) A1AR: calculated from experimental binding affinities; for ΔΔG Experimental A1AR: based on Table S3
T1 construct: expressed in transfected cells; host or cells: HEK293 (membrane preparations)
T1 sequence (P30542 1-326): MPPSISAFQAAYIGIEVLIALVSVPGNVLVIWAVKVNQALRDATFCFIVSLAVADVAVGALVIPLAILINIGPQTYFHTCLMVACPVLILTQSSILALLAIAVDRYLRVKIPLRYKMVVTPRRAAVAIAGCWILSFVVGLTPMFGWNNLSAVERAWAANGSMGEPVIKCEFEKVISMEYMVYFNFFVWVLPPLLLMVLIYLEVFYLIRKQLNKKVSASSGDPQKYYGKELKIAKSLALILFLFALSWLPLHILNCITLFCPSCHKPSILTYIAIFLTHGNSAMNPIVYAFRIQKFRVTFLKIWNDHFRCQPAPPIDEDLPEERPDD
Method: (§1) Radioligand binding assays. HEK293 cells expressing the human A1- or A2AARs were cultured in DMEM supplemented with 10% fetal bovine serum, 100 Units/ml penicillin, 100 µg/ml streptomycin, and 2 µmol/ml glutamine. Cells were detached from plates by scraping into cold PBS and centrifuged at 250 g for 5 min. The pellets were resuspended in ice-cold Tris HCl buffer (50 mM, pH 7.4) and then homogenized. After homogenization and suspension, cells were centrifuged at 1000 g for 10 min, and the pellet was discarded.
(§2) The suspension was then re-centrifuged at 20,000 g for 60 min at 4 °C. The pellets were resuspended in buffer containing 3 Units/ml adenosine deaminase and incubated at 37°C for 30 min. The aliquots of membrane preparations were stored at −80°C until the binding experiments. For displacement binding assays, membrane preparations (20 µg proteins/tube) were incubated at 25°C for 60 min with a final concentration of [3H]DPCPX (0.5 nM) and [3H]ZM241385 (1.0 nM) for A1- and A2AARs, respectively, in a mixture containing 50 µL of increasing concentrations of a test ligand in a total assay volume of 200 µL of 50 mM Tris HCl, pH 7.4, containing 10 mM MgCl2. Nonspecific binding was determined using 100 µM of XAC. The reaction was terminated by filtration with GF/B filters using a Brandel 24-channel harvester. Filters were placed in scintillation vials containing 5 ml of Hydrofluor scintillation buffer and counted using a PerkinElmer Tricarb 2810TR liquid scintillation counter. […]
(§3) Table S1. Binding affinities of compounds 1-10 based on displacement of [3H]DPCPX and [3H]ZM241385 at the A1AR and A2AAR, respectively.
(§4) Compound Substituent A1AR A2AAR index […]
(§5) a Ki values are expressed as means ± SEM from (2-4) independent experiments. b Free energy of binding (ΔG) calculated from experimental binding affinities (kcal/mol) / Number of heavy atoms (HA). The ligand efficiency (LE) = −ΔG/HA. c Values from Matricon et al.8
(§6) Table S3. Binding affinities of compounds 11-26 based on displacement of [3H]DPCPX and […]
(§7) a K values are expressed as means ± SEM from (2-4) independent experiments.
(§8) Free energy of binding (ΔG) calculated from experimental binding affinities (kcal/mol) / Number of heavy

human A1AR [4] = test: as above; conditions: A1AR versus A2AAR; for A1AR selectivity index: from Ki values
Method: as §1, §2, §3, §4, §5, §6, §7, §8

human A2AAR [5] = biological target: T2, human A2AAR (Homo sapiens, UniProt P29274); test: Radioligand binding assay, displacement of [3H]ZM241385; conditions: for Free energy of binding (ΔG) A2AAR: calculated from experimental binding affinities; for ΔΔG Experimental A2AAR: based on Table S3
T2 construct: expressed in transfected cells; host or cells: HEK293 (membrane preparations)
T2 sequence (P29274 whole entry): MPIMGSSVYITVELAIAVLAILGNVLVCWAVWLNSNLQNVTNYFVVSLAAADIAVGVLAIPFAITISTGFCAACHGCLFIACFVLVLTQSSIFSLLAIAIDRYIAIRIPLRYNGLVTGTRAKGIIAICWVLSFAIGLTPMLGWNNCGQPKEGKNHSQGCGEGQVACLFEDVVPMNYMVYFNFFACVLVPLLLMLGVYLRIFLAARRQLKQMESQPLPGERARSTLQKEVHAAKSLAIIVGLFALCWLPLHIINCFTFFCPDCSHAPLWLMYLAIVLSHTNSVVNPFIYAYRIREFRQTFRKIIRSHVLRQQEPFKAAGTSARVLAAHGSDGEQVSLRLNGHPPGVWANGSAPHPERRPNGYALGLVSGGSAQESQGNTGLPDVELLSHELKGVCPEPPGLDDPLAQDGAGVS
Method: as §1, §2, §3, §4, §5, §6, §7, §8

human A2AAR [6] = biological target: T2, human A2AAR; test: cAMP functional assay; type: cell-based; conditions: HEK293 cells, intracellular cAMP, n=3
Method: (§9) Functional assays measuring intracellular concentrations of cAMP were performed at the human A1AR and A2AAR to determine the efficacy of compounds 22 and 26. […]
cAMP assay. HEK293 cells were grown in DMEM supplemented with 10% fetal bovine serum, 100 Units/ml penicillin, 100 µg/ml streptomycin, and 2 µmol/ml glutamine. After 24 hours, cells were treated with assay buffer containing rolipram (10 µM), PSB603 (1 […]
The reaction was terminated upon removal of the supernatant, and addition of 100 µl Tween-20 (0.3%). Intracellular cAMP levels […]
(§10) were measured with an ALPHAScreen cAMP assay kit following the instructions from the manufacturer (PerkinElmer).

human A1AR [7] = biological target: T1, human A1AR; test: cAMP functional assay; type: cell-based; conditions: HEK293 cells, intracellular cAMP, n=3
Method: as §9
cAMP assay. HEK293 cells were grown in DMEM supplemented with 10% fetal bovine serum, 100 Units/ml penicillin, 100 µg/ml streptomycin, and 2 µmol/ml glutamine. After 24 hours, cells were treated with assay buffer containing rolipram (10 µM), PSB603 (1 µM) and adenosine deaminase (3 units/ml) for 30 min followed by the addition of antagonists for 20 min and subsequent addition of agonists and incubated for another 20 min. For the A1AR assay, after incubation with agonist for 20 min, forskolin (10 µM) was added and incubated for an additional 15 min. The reaction was terminated upon removal of the supernatant, and addition of 100 µl Tween-20 (0.3%). Intracellular cAMP levels […]
as §10

[8] = displacement of [3H]ZM241385, means ± SEM from 2-4 independent experiments
[9] = displacement of [3H]DPCPX, means ± SEM from 2-4 independent experiments

Row | SMILES | A1AR selectivity (hA1AR [1]) | Free energy of binding (ΔG) A1AR (human A1AR [3]) [kcal/mol] | A1AR selectivity index (human A1AR [4]) | Free energy of binding (ΔG) A2AAR (human A2AAR [5]) [kcal/mol] | Ki (hA1AR [2]) [nM] | Ki (hA2AAR) [nM] | also measured
1 | Cc1nc(N)c2nc(-n3nccn3)n(C)c2n1 [CHEMBL194290] | 6.8 | – | – | – | 10.4 | 70.4 | –
2 | Cn1c(-n2nccn2)nc2c(N)ncnc21 [CHEMBL194728] | 115.7 | – | – | – | 0.4 | 46.3 | –
3 | Nc1nc2ccccc2n2nc(-c3ccco3)nc12 [CHEMBL261345] | 2.0 | – | – | – | 5.6 | 11.2 | –
4 | Oc1nc2ccccc2n2nc(-c3cccs3)nc12 [CHEMBL328437] | – | – | – | – | 2 | – | –
5 | Cn1ncc2nc(N)n3nc(-c4ccco4)nc3c21 [CHEMBL1935752] | 0.4 | – | – | – | 10 | 3.6 | –

The next lines start with results.

Row | A1AR selectivity (hA1AR [1]) | Free energy of binding (ΔG) A1AR (human A1AR [3]) [kcal/mol] | A1AR selectivity index (human A1AR [4]) | Free energy of binding (ΔG) A2AAR (human A2AAR [5]) [kcal/mol] | SMILES | Ki (hA1AR [2]) [nM] | Ki (hA2AAR) [nM] | also measured
6 | – | -11.0 | 38.4 | -8.8 | CC1(C(=O)Nc2nc3cc(Br)ccc3s2)CCCC1 [Compound 22] | – | – | improvement of A1AR affinity (human A1AR [3]; compared to compound 1): > 1000 fold; Ki (human A1AR [3]; radioligand binding, Fig. 1, Table S5): 10 nM; ΔΔG Experimental A1AR (human A1AR [3]; reference compound 9): –2.4 ± 0.1 kcal/mol; selectivity for the A1AR (human A1AR [4]; Fig. 1): 38 fold; Ki (human A2AAR [5]; [8]): 384 ± 82 nM; ΔΔG Experimental A2AAR (human A2AAR [5]; reference compound 9): –0.8 ± 0.1 kcal/mol; efficacy in cAMP assay at A2AAR (human A2AAR [6]): antagonists; also recorded: Antagonism; efficacy in cAMP assay at A1AR (human A1AR [7]): antagonists; also recorded: Antagonism
7 | – | -9.9 | 27.8 | -7.9 | CC1(C(=O)Nc2nc3cc(C#N)ccc3s2)CCCC1 [Compound 25] | – | – | Ki (human A1AR [3]; [9]): 64 ± 6 nM; ΔΔG Experimental A1AR (human A1AR [3]; reference compound 9): –1.3 ± 0.1 kcal/mol; Ki (human A2AAR [5]; [8]): 1780 ± 740 nM; ΔΔG Experimental A2AAR (human A2AAR [5]; reference compound 9): 0.1 ± 0.3 kcal/mol
8 | – | -8.1 | 0.1 | -9.6 | COc1cccc2sc(NC(=O)c3ccccc3)nc12 [Compound 26] | – | – | Ki (human A1AR [3]; [9]): 1330 nM and 1300 nM; ΔΔG Experimental A1AR (human A1AR [3]; reference compound 10): 0.4 ± 0.3 kcal/mol; A2AAR selectivity (human A2AAR [5]; A2AAR versus A1AR): 13 fold; Ki (human A2AAR [5]; radioligand binding, Table S5): 106 nM; ΔΔG Experimental A2AAR (human A2AAR [5]; reference compound 10): –0.8 ± 0.1 kcal/mol; efficacy in cAMP assay at A2AAR (human A2AAR [6]): antagonists; also recorded: Antagonism; efficacy in cAMP assay at A1AR (human A1AR [7]): antagonists; also recorded: Antagonism
